Measurements published in ChEMBL document CHEMBL2331177, “Pleurospiroketals A-E, perhydrobenzannulated 5,5-spiroketal sesquiterpenes from the edible mushroom Pleurotus cornucopiae” (J Nat Prod, 2013).

Experiments:
RAW264.7 [1] = test: Inhibition of LPS-induced nitric oxide production in mouse RAW264.7 cells treated 1 hr before LPS challenge measured after 24 hrs by Griess reaction method; format: functional, cell-based
RAW264.7 [2] = test: Cytotoxicity against mouse RAW264.7 cells at 100 uM; format: cell-based; conditions: raw264.7, 100 µM
HeLa = test: Cytotoxicity against human HeLa cells after 72 hrs by MTT assay; format: functional, cell-based

Compound | IC50 (RAW264.7 [1]) [µM] | Activity (RAW264.7 [2]) | IC50 (HeLa) [µM]
CC(=O)OCC1=C2CC[C@](C)(O)[C@H](O)[C@H]2O[C@@]12OC(C)(C)CC2=O [PLEUROSPIROKETAL C] | 20.8 | Non-toxic | 18.8
C=C1[C@H]2CC[C@](C)(O)[C@H](O)[C@H]2O[C@@]12OC(C)(C)CC2=O [PLEUROSPIROKETAL A] | 6.8 | Non-toxic | 20.6
C[C@]12CCC(=O)C=C1CC[C@@H]1[C@@H]2[C@@H](O)C[C@@]2(C)[C@H]1CC[C@]2(O)C(=O)CO [HYDROCORTISONE] | 53.8 | – | –
C=C1[C@H]2CC[C@](C)(O)[C@H](O)[C@H]2O[C@]12OC(C)(C)CC2=O [PLEUROSPIROKETAL B] | 12.6 | Non-toxic | 32.8
